Broadly, the EC50 is the concentration giving half of the maximal effect.

Experimental findings from patent EP4458830A1, “TRICYCLIC COMPOUND, METHOD FOR PREPARING SAME, AND USE THEREOF” (Sichuan Kelun-Biotech Biopharmaceutical Co., Ltd., priority 2021, dated 2023) are described below.

In one test the target is T1, human TLR7 (Homo sapiens, UniProt Q9NYK1).
T1 construct: host or cells: HEK-Blue hTLR7 cells (HEK293-derived reporter line; that the line is stably transfected with the human TLR7 gene is own knowledge of the vendor's product)
T1 sequence (Q9NYK1 27-1049): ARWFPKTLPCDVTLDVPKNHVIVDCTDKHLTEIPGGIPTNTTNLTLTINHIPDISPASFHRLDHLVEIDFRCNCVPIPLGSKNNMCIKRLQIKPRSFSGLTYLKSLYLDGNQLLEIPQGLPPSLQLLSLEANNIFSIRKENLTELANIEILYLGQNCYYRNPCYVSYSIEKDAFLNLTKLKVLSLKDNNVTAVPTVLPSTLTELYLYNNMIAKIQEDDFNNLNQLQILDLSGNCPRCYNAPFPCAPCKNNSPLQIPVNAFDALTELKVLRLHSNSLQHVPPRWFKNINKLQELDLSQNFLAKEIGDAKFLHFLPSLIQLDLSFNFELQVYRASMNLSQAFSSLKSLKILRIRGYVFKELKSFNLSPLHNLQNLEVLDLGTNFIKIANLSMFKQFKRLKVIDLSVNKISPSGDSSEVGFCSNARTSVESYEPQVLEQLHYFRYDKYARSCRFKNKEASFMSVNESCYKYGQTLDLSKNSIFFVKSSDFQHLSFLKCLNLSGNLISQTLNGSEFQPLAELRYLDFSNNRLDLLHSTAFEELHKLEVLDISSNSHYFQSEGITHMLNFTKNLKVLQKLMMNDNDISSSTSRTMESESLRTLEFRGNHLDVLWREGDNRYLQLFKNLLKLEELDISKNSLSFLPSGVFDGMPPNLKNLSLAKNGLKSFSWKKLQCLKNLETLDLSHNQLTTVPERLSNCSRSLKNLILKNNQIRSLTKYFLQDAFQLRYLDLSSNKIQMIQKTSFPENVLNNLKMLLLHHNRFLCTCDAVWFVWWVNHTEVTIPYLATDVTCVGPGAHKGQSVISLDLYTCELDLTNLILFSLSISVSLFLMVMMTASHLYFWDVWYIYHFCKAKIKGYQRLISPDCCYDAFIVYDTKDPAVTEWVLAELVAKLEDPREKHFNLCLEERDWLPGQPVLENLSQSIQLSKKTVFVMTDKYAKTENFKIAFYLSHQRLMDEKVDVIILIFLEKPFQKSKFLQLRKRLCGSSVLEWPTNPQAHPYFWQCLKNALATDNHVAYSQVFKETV
The experiment in a line: Agonistic activity of compounds on HEK-Blue hTLR7 cells (QUANTI-Blue reporter, OD620). It is filed as cell-based. Conditions: for EC50 / Emax: HEK-Blue hTLR7 cells; for EC50: 20 h incubation; for Emax: OD620 at which the activation effect reached the maximum; for activation effect on human TLR7: summary in words. How it is done: • 1. HEK-Blue hTLR7 cells (Invivogen) were cultured in DMEM medium (Hyclone) containing 10% FBS heat-inactivated fetal bovine serum (Corning). On the day of detection, the cell state was observed under a microscope, the cells were collected and resuspended, and the cell concentration was adjusted after counting, 50 µL per well, the total amount of cells was 2×10^4, and the cells were inoculated in a 96-well plate. • 2. After the cells adhered to the wall overnight, 50 µL of the test compound at different concentrations was added into the well plate, so that the final concentrations were 100 µM, 33.3 µM, 11.11 µM, 3.70 µM, 1.23 µM, 0.41 µM, 0.14 µM, 0.05 µM, 0 µM, and the final concentration of DMSO was 1%. The compound was incubated with the cells in a 37°C, 5% CO2 incubator for 20 h. • 3. After the incubation, observation under microscope was performed to determine the maximum signal well, the states of the cells with the highest and lowest concentrations of the compound, and whether the compound will crystalize at high concentration. 10 µL of cell culture supernatant was taken and transferred to a new 96-well transparent plate, 90 µL of QUANTI-Blue (Invivogen) detection reagent was added to each well, and incubated at 37°C for 3 h, and OD620 was read with a multifunctional microplate reader (BMG LABTECH). • 4. EC50 was calculated by fitting with Graphpad Prism software log(agonist) vs. response - Variable slope, and Emax was the OD620 at which the activation effect of the test compound reached the maximum.

In another test the target is T2, human TLR8 (Homo sapiens, UniProt Q9NR97).
T2 construct: host or cells: HEK-Blue hTLR8 cells (HEK293-derived reporter line; that the line is stably transfected with the human TLR8 gene is own knowledge of the vendor's product)
T2 sequence (Q9NR97 27-1041): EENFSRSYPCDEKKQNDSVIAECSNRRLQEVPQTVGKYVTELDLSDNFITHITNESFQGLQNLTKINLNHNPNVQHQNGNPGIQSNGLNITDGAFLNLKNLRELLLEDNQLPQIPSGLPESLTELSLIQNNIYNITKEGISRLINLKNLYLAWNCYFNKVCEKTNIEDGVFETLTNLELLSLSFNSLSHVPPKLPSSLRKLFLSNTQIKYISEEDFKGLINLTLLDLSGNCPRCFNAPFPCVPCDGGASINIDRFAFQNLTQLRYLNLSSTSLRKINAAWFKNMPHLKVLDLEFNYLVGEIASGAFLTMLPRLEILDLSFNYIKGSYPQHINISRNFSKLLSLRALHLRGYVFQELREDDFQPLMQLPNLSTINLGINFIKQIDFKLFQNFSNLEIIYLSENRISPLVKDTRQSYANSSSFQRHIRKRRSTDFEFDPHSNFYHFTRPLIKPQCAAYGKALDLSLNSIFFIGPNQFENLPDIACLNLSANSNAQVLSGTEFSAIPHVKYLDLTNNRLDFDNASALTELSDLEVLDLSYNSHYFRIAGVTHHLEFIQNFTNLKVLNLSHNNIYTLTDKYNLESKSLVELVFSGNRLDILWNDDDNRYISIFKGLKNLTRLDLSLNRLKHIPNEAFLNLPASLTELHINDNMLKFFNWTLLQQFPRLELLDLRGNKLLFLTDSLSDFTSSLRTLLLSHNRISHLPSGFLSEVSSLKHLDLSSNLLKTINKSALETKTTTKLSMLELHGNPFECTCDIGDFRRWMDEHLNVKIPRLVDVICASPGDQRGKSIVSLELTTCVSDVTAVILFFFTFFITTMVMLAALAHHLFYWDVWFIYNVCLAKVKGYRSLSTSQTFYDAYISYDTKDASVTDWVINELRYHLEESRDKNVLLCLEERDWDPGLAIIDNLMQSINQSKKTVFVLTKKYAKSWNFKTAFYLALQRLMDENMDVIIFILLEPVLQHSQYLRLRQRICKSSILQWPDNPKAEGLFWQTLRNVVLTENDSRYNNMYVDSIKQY
The experiment in a line: Agonistic activity of compounds on HEK-Blue hTLR8 cells (QUANTI-Blue reporter, OD620). The format is cell-based. Conditions: for EC50 / Emax: HEK-Blue hTLR8 cells; for EC50: 20 hours incubation; for Emax: OD620 at which the activation effect reached the maximum; for activation effect on human TLR8: summary in words. How it is done:
• 1. HEK-Blue hTLR8 cells (Invivogen) were cultured in DMEM medium (Hyclone) containing 10% FBS heat-inactivated fetal bovine serum (Corning). On the day of detection, the cell state was observed under a microscope, the cells were collected and resuspended, and the cell concentration was adjusted after counting, 50 µL per well, the total amount of cells was 2×10^4, and the cells were inoculated in a 96-well plate. • 2. After the cells adhered to the wall overnight, 50 µL of the test compound at different concentrations was added to the well plate, so that the final concentrations were 100 µM, 25 µM, 6.25 µM, 1.56 µM, 0.39 µM, 0.10 µM, 0.02 µM, 0.006 µM, 0 µM, or 100 µM, 33.3 µM, 11.11 µM, 3.70 µM, 1.23 µM, 0.41 µM, 0.14 µM, 0.05 µM, 0 µM, and the final concentration of DMSO was 1%. The compound was incubated with the cells in a 37°C, 5% CO2 incubator for 20 hours. • 3. After the incubation, observation was performed under microscope to determine the maximum signal well, the state of the cells with the highest and lowest concentrations of the compound, and whether the compound will crystalize at high concentration. 10 µL of cell culture supernatant was transferred to a new 96-well transparent plate, added with 90 µL of QUANTI-Blue (Invivogen) detection reagent to each well, incubated at 37°C for 3 hours, and OD620 was read with a multifunctional microplate reader (BMG LABTECH). • 4. EC50 was calculated by fitting with Graphpad Prism software log(agonist) vs. Response - Variable slope, and Emax was the OD620 at which the activation effect of the test compound reached the maximum.

Take `CCCCc1nc2c(N)nc3cc(C4CCNCC4)sc3c2n1CC1CCOCC1` [Compound 33, 2-butyl-7-(hexahydropyridin-4-yl)-1-(3,4,5,6-tetrahydro-2H-pyran-4-ylmethyl)thieno[3,2-b]imidazo[4,5-d]pyridine-4-amine]: on human TLR7, the EC50 was found to be 0.03 µM, the Emax turned out to be 1.46 OD620 and the “activation effect on human TLR7” value is recorded as “strong activation effect”. At human TLR8, the EC50 came out at 18.9 µM, the Emax turned out to be 0.67 OD620 and the “activation effect on human TLR8” value is given as “strong activation effect”.

For `CCCCc1nc2c(N)nc3cc(C4CCN(C)CC4)sc3c2[nH]1` [Compound 6, 2-butyl-7-(1-methylpiperidin-4-yl)-1H-imidazo[4,5-d] thieno[3,2-b]pyridine-4-amine], at human TLR7, it took 0.44 µM to reach a half-maximal effect (EC50), the Emax came out at 1.08 OD620 and the “activation effect on human TLR7” value is recorded as “strong activation effect”. At human TLR8, the EC50 turned out to be 15.3 µM, the Emax is on record as 1.11 OD620 and the “activation effect on human TLR8” value was “strong activation effect”.

Turning to `CCCCc1nc2c(N)nc3cc(C)sc3c2n1CCCCN` [Compound 1, 1-(4-aminobutyl)-2-butyl-7-methyl-1H-imidazo[4,5-d]thieno[3,2-b]pyridine-4-amine], at human TLR7, a half-maximal response (EC50) required 0.22 µM, the Emax was found to be 1.36 OD620 and the “activation effect on human TLR7” value is recorded as “strong activation effect”. In addition, at human TLR8, the response was half-maximal at 5.83 µM (EC50), the Emax was 1.43 OD620 and the “activation effect on human TLR8” value is reported as “strong activation effect”.

Consider `CCCCc1nc2c(N)nc3cc(C)sc3c2n1CC1CCNCC1` [Compound 3, 2-butyl-7-methyl-1-(piperidin-4-ylmethyl)-1H-imidazo[4,5-d]thieno[3,2-b]pyridine-4-amine], for which, at human TLR7, the concentration for a half-maximal effect (EC50) was 0.47 µM, the Emax came out at 1.43 OD620 and the “activation effect on human TLR7” value is “strong activation effect”. In addition, at human TLR8, the EC50 was 19.4 µM, the Emax amounted to 1.86 OD620 and the “activation effect on human TLR8” value is reported as “strong activation effect”.

For the molecule `CCCCc1nc2c(N)nc3ccsc3c2n1CCCCN` [Compound 2, 1-(4-aminobutyl)-2-butyl-1H-imidazo[4,5-d]thieno[3,2-b]pyridine-4-amine], on human TLR7, the EC50 came to 0.28 µM, the Emax is reported as 1.36 OD620 and the “activation effect on human TLR7” value is given as “strong activation effect”. Besides, at human TLR8, the EC50 was 8.83 µM, the Emax came out at 1.37 OD620 and the “activation effect on human TLR8” value is given as “strong activation effect”.

Consider `CCCCc1nc2c(N)nc3ccsc3c2n1CC1CCN(C)CC1` [Compound 27, 2-butyl-1-[(1-methylhexahydropyridin-4-yl)methyl] thieno[3,2-b]imidazo[4,5-d]pyridine-4-amine], for which, at human TLR7, the EC50 is 0.27 µM, the Emax is recorded as 1.59 OD620 and the “activation effect on human TLR7” value is recorded as “strong activation effect”. Also, at human TLR8, the EC50 stood at 11.9 µM, the Emax was determined as 0.84 OD620 and the “activation effect on human TLR8” value is “strong activation effect”.
